This assay relates to Mycobacterium tuberculosis non-replicating, growth inhibition. Briefly: growth inhibition of non-replicating M. tuberculosis (AID 488890).

Inconclusive results are not listed. The source made the active and inactive calls. How the calls were made is not given here.

What is called IC50 is the concentration that gives 50% inhibition.

On to `COc1cccc(-c2nnc(NC(=O)c3ccc(S(=O)(=O)N4CCOCC4)cc3)o2)c1`, for which the IC50 was 18.7 µM (inactive).

Consider `O=C(N/N=C/C=C/c1cccc([N+](=O)[O-])c1)c1ccncc1`, for which the IC50 was 24.8 µM (inactive).

In the case of `CCCCCCCC(=O)N/N=C/c1ccc([N+](=O)[O-])o1`, the concentration for half-maximal inhibition (IC50) was 2.63 µM.

With `CCOC(=O)c1c(NC(C)=O)sc2c(OCC(O)CNC(C)(C)C)c(Br)ccc12` (stereo not given), the IC50 was 4.44 µM.

Take `C/C(=N\NC(=O)c1cc([N+](=O)[O-])cc([N+](=O)[O-])c1)c1ccco1`: the IC50 is 11.4 µM (inactive).

As to `CCc1ccccc1NC(=O)C1COc2ccccc2O1` (stereo not given), the IC50 was 19.8 µM (inactive).

On to `Cc1[nH][nH]c(=O)c1C(c1ccc(-c2ccc(F)cc2)o1)c1c(C)[nH][nH]c1=O`, for which the IC50 was 8.5 µM.

Take `COc1cccc(NC(=O)c2ccc(Cn3cc([N+](=O)[O-])cn3)o2)c1`: the half-inhibitory concentration (IC50) is 7.57 µM.

Consider `Clc1ccccc1CSc1nnc([C@@H]2CCCN2)o1`, for which the IC50 was 12.2 µM (inactive).

In the case of `CCOC(=O)c1nn(-c2ccccc2)c2nc(Nc3ccccc3)cc(=O)n12`, the IC50 is 4.74 µM.

On to `O=C(COc1ccc(-c2ccccc2)cc1)Nc1cccnc1`, for which the concentration for half-maximal inhibition (IC50) is 3.28 µM.

As for `CCOc1ccc(Cn2c(=O)oc3ccccc32)cc1`, the concentration for half-maximal inhibition (IC50) was 0.83 µM.

In the case of `O=C(Nc1ncccc1O)c1ccc(Oc2ccccc2)cc1`, the IC50 was 20.5 µM (inactive).

For the compound `COc1ccc(C(=O)Oc2c(CN3CCOCC3)cc(Cl)c3cccnc23)cc1OC`, the IC50 is 15.3 µM (inactive).

With `CC(=O)c1cc2c(ccc3ccccc32)oc1=O`, the IC50 is 15.4 µM (inactive).

With `CCN1CCN(Cc2cc(C(C)(C)C)c(O)c(C(C)(C)C)c2)CC1`, the 50% inhibitory concentration (IC50) was 3.48 µM.

For the compound `Cc1cc(Br)ccc1OCC(=O)NNC(=O)C(=O)Nc1ccccc1`, the half-inhibitory concentration (IC50) is 1.22 µM.

On to `CC(C)(C)c1ccc(C(=O)Nc2nnc(C3=COCCO3)o2)cc1`, for which the IC50 was 3.07 µM.

On to `O=C(Nc1ccc(Cl)c(Cl)c1)O/N=C/c1ccncc1`, for which the IC50 was 15.5 µM (inactive).

On to `O=C(c1ccccc1)n1c(=O)c(F)cn(COCCBr)c1=O`, for which the IC50 is 21 µM (inactive).

Take `O=C(N/N=C/c1cc(Br)ccc1O)c1ccccc1Cl`: the IC50 was 0.48 µM.

As to `CN(CCCCOc1ccc(F)cc1)Cc1ccccc1`, the IC50 is 22.9 µM (inactive).

Regarding `CCn1cc(/C=N\NC(=O)c2ccc(F)cc2)cn1`, the IC50 is 24.3 µM (inactive).

As to `CCOc1ccc(OCC(=O)Nc2nccs2)cc1`, the concentration for half-maximal inhibition (IC50) is 7.75 µM.

In the case of `Cc1ccc(C)c(-c2nnc(NC(=O)COc3ccccc3)o2)c1`, the IC50 was 1.29 µM.

Regarding `Cc1ccc(NC(=O)CO/N=C/c2ccccc2C)c(C)c1`, the IC50 is 13 µM (inactive).

Regarding `COc1ccc(-c2nnc(SCC(C)C)o2)cc1`, the half-inhibitory concentration (IC50) was 0.9 µM.

`Cc1ccc2nc(-c3ccccn3)c(NC3CCCC3)n2c1`: the IC50 was 12.5 µM (inactive).

Turning to `O=C(CN1CCC(NC(=O)c2cccc(F)c2)CC1)Nc1ccc(Br)cc1`, the IC50 was 31.9 µM (inactive).

Regarding `COc1ccc(C(=O)COC(=O)c2ccccc2O)c(OC)c1`, the 50% inhibitory concentration (IC50) is 1.46 µM.

Consider `Cc1[nH]c2ccccc2c1C(=O)C(C)OC(=O)c1ccc([N+](=O)[O-])o1` (stereo not given), for which the IC50 is 1.07 µM.

As to `Clc1ccc(SCCCCN2CCNCC2)cc1`, the IC50 is 39.3 µM (inactive).

For the compound `CCOC(=O)/C=C1\Nc2ccccc2OC1=O`, the IC50 is 3 µM.

For `CC(C)c1ccc(/C=N/NC(=O)c2ccccn2)cc1`, the IC50 was 12.9 µM (inactive).

Turning to `CCCCNC(=O)Nc1nnc(-c2ccc(Cl)cc2)o1`, the IC50 is 22.8 µM (inactive).

With `O=C(N/N=C/c1cccc2cccnc12)c1ccccc1O`, the IC50 was 3.16 µM.

Consider `CCCCN1CCC(O)(c2ccccc2)C(C(=O)c2ccccc2)C1` (stereo not given), for which the half-inhibitory concentration (IC50) is 4.86 µM.

Consider `Clc1ccc2c(c1)C(N1CCNCC1)Cc1ccccc1S2` (stereo not given), for which the IC50 is 15.2 µM (inactive).

Consider `O=C1CSC(=S)N1Cc1cccnc1`, for which the IC50 is 6.18 µM.

On to `CCCCCC1CC(CC(=O)NC(=S)Nc2ccc([N+](=O)[O-])cc2)C(=O)O1` (stereo not given), for which the IC50 was 6.68 µM.

In the case of `Cc1ccccc1Cn1cc(NC(=O)c2noc(C(C)C)c2[N+](=O)[O-])cn1`, the concentration for half-maximal inhibition (IC50) was 7.58 µM.

Regarding `S=c1c2c(nc3nc[nH]n13)CCC2`, the IC50 was 4.68 µM.

For `CCn1cc(C(=O)O)c(=O)c2cc(F)c(N3CCN(C(=S)NC(=O)c4ccccc4)CC3)cc21`, the IC50 is 16.8 µM (inactive).

Turning to `O=C(c1nnc(-c2ccc(Cl)cc2)o1)C1CCCC1`, the IC50 was 11.4 µM (inactive).

As for `Cc1cc(C)n(CC(=O)N/N=C/c2ccc([N+](=O)[O-])s2)n1`, the IC50 is 24.4 µM (inactive).

Take `COc1cc2ccccc2cc1C(=O)Nc1sc2c(c1C(N)=O)CCN(C(C)C)C2`: the IC50 was 19 µM (inactive).

Take `O=Cc1coc2ccc3ccccc3c2c1=O`: the IC50 is 16.3 µM (inactive).

For `COc1cccc2sc(N3CCN(C(=O)c4ccc([N+](=O)[O-])o4)CC3)nc12`, the IC50 is less than 0.1 µM.

For the compound `CC(C)(C)/C(O)=C/c1nc2ccccc2oc1=O`, the IC50 was 6.85 µM.

For the compound `O=C(COC(=O)CCC(=O)c1ccc(F)cc1)Nc1ccccc1`, the IC50 was 11.1 µM (inactive).

With `Cc1ccc(C(=O)c2cncc(Br)c2)cc1`, the IC50 was 9.3 µM.

With `O=S(=O)(Nc1nccs1)c1ccc(NCc2cc(Br)cc(Br)c2O)cc1`, the IC50 was 10.7 µM (inactive).

On to `CCSc1nc(O)c(C2OC(=O)c3c2ccc(OC)c3OC)c(=O)n1-c1ccccc1` (stereo not given), for which the IC50 was 13.3 µM (inactive).

Take `CCOc1ccc(NC(=O)COc2ccc3c(c2)OCO3)cc1`: the IC50 was 10.6 µM (inactive).

`CC1=NN(C(=O)c2csc(C)c2)C(O)(C(F)(F)F)C1` (stereo not given): the IC50 is 0.49 µM.

As to `Cc1ccccc1-n1nnc2c(=O)oc3ccccc3c21`, the IC50 was 0.44 µM.

Take `CC(C)OC(=O)CCCCCN1C(=O)CSC1=S`: the half-inhibitory concentration (IC50) was 1.94 µM.

Regarding `N/C(=N/OC(=O)c1ccccc1Cl)c1ncc([N+](=O)[O-])s1`, the 50% inhibitory concentration (IC50) is 3.15 µM.

With `Cc1ccc(CNCc2cc(Cl)ccc2O)cc1`, the IC50 was 12.8 µM (inactive).

Take `C/C(=N\NC(=O)c1cccc(Cl)c1)C1C(=O)c2ccccc2C1=O`: the IC50 is 0.38 µM.

Turning to `CCc1nnc(NC(=O)c2cc3ccccc3oc2=O)s1`, the IC50 is 2.75 µM.

As for `COc1ccc(C2(O)CCN(CC(=O)Nc3nc(-c4ccccc4)cs3)CC2)cc1`, the IC50 was 24.2 µM (inactive).

As to `O=C(Nc1nc2ccccc2[nH]1)c1ccc(F)cc1`, the IC50 is 13 µM (inactive).

As for `COC(=O)c1ccc(C(=O)NC2CCCc3c2cnn3-c2cc(F)cc(F)c2)nc1` (stereo not given), the IC50 is 9.55 µM.

Regarding `COc1ccccc1C1=NOC(COC(=O)c2ccc([N+](=O)[O-])cc2)C1` (stereo not given), the IC50 was 18.8 µM (inactive).

Regarding `C/C(O)=C\c1nc2ccccc2oc1=O`, the IC50 was 3.18 µM.

Turning to `CCOC(=O)c1c(NC(=O)COC(=O)c2ccccn2)sc2c1CCC2`, the half-inhibitory concentration (IC50) was 7.87 µM.

Take `CCOc1ccc(/C=N/OCC(=O)Nc2ccc3c(c2)OCO3)cc1`: the IC50 is 5.11 µM.

Turning to `Cc1ccc(C)c(-c2nnc(NC(=O)c3ccco3)o2)c1`, the half-maximal inhibitory concentration (IC50) was 0.66 µM.

As to `O=C(COc1ccc2ccccc2c1)N/N=C/c1ccccn1`, the half-inhibitory concentration (IC50) was 6.72 µM.

As for `O=[N+]([O-])c1ccc(CN2CCN(c3ccc(Cl)cc3)CC2)o1`, the IC50 is less than 0.1 µM.

For `O=C(COc1ccc([N+](=O)[O-])cc1)NNC(=O)c1cccs1`, the IC50 is 28.1 µM (inactive).

As to `CC(NC(=O)c1cc([N+](=O)[O-])cc([N+](=O)[O-])c1)c1ccc(-n2ccnc2)cc1` (stereo not given), the IC50 was 5.42 µM.

With `O=C(Nc1nccs1)c1cc2cc(Cl)ccc2oc1=O`, the IC50 was 3.23 µM.

`CCOC(=O)C(=O)Cc1nc2ccccc2s1`: the 50% inhibitory concentration (IC50) is 6.54 µM.

For `COc1ccc(OCC(=O)N/N=C2\CCc3ccccc32)cc1`, the IC50 was 9.35 µM.

As for `COc1ccc(CCNc2nc(-c3ccccn3)cs2)cc1OC`, the half-maximal inhibitory concentration (IC50) is 8.4 µM.

In the case of `CC(CN1CCOCC1)OC(=O)c1ccc2c(c1)OCCO2` (stereo not given), the IC50 is 33.5 µM (inactive).

In the case of `O=c1[nH]c(=O)n(Cc2ccccc2Cl)c(O)c1/C=C1/C=CC=N1`, the IC50 was 0.25 µM.

For the compound `Clc1cccc(/C=N\Nc2nccs2)c1`, the IC50 is 12 µM (inactive).

`O=C(NC1=NCCS1)c1ccc(-c2ccc(Cl)cc2)o1`: the IC50 is 11.9 µM (inactive).

In the case of `CCCNC1=C(N(C(C)=O)c2cccc(F)c2)C(=O)c2ccccc2C1=O`, the IC50 is 5.89 µM.

In the case of `COC(=O)N/N=C/c1ccc([N+](=O)[O-])s1`, the IC50 was 17 µM (inactive).

Take `CC(C)Cn1c(N)c(C(=O)COC(=O)c2cnc(Cl)c(Cl)c2)c(=O)n(C)c1=O`: the IC50 is 12 µM (inactive).

Consider `O=C(CCS(=O)(=O)c1ccc(Cl)cc1)Oc1ccc2c(c1)OCO2`, for which the IC50 was 22.7 µM (inactive).

In the case of `O=C(NC(=S)Nn1cnc2c(cnn2-c2ccccc2)c1=O)c1ccccc1`, the IC50 was 22.2 µM (inactive).

As to `Fc1cccc2sc(N3CCCC3)nc12`, the IC50 was 23.1 µM (inactive).

Take `O=C(COC(=O)c1cc(Cl)ccc1O)c1ccc2c(c1)OCO2`: the IC50 was 6.61 µM.

`O=C(Nc1cc(C(F)(F)F)ccc1-n1cncn1)c1ccc([N+](=O)[O-])o1`: the IC50 was 17.9 µM (inactive).

Turning to `O=C(Nc1nc(-c2ccccn2)cs1)c1ccco1`, the concentration for half-maximal inhibition (IC50) was 6.64 µM.

As for `O=C(Nc1nc2ccccc2n1CCN1CCCC1)C1CCCCC1`, the IC50 is 17.8 µM (inactive).

With `CCOC(=O)c1csc(-c2snnc2C)n1`, the IC50 is 5.09 µM.

As for `Cc1nnc(-c2ccccc2)c(=O)n1/N=C/c1c(O)ccc2ccccc12`, the 50% inhibitory concentration (IC50) is 1.31 µM.

Consider `O=C(N/N=C/c1ccccn1)c1cccc([N+](=O)[O-])c1`, for which the IC50 is 3.91 µM.

On to `CCc1ccc2c(c1)Sc1ccccc1CC2N1CCN(C)CC1` (stereo not given), for which the IC50 was 13.6 µM (inactive).

`Cn1c(=O)c2c(=O)cc(NNC(=O)CC#N)[nH]c2n(C)c1=O`: the IC50 was 26.9 µM (inactive).

In the case of `Cc1ccccc1C(=O)Nc1nnc(-c2ccco2)o1`, the IC50 was 4.97 µM.

Regarding `CCCCCn1c(=O)c(C(=O)Nc2cnccn2)c(O)c2ccccc21`, the IC50 is 2.55 µM.

For `CCSc1ncc(/C=N/Nc2ccc(Cl)cc2)n1C`, the concentration for half-maximal inhibition (IC50) was 6.58 µM.

With `Cc1csc(NC(=O)c2cc([N+](=O)[O-])cc([N+](=O)[O-])c2)n1`, the IC50 is 7.76 µM.

Values taken from PubChem BioAssay AID488890 (Southern Research Specialized Biocontainment Screening …, 2010).
